Measured values: ChEMBL document CHEMBL1201862, “PubChem BioAssay data set” (2004)
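Each compound was tested at five concentrations against cells in 96-well plates for 48 hours. GI50 marks 50% less growth.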 Active and inactive are the calls of the source. No stated cut-off is given here; in the data, active = GI50 up to about 1.1 µM and inactive = higher.

Tests used:
Test in all cases: growth of human tumour cells (NCI), 48 h
NCI-H460 = test system: NCI-H460
M14 = test system: M14
EKVX = test system: EKVX
Hs-578T = test system: Hs-578T
Malme-3M = test system: Malme-3M
K562 = test system: K562
LOX IMVI = test system: LOX IMVI
CCRF-CEM = test system: CCRF-CEM
DU-145 = test system: DU-145
HL-60 = test system: HL-60
SF-539 = test system: SF-539
MDA-N = test system: MDA-N
NCI-H23 = test system: NCI-H23
SW-620 = test system: SW-620
SK-OV-3 = test system: SK-OV-3
CAKI-1 = test system: CAKI-1
HCT-15 = test system: HCT-15
HOP-62 = test system: HOP-62
HCC 2998 = test system: HCC 2998
PC-3 = test system: PC-3
T47D = test system: T47D
SK-MEL-2 = test system: SK-MEL-2
MCF7 = test system: MCF7
SR = test system: SR
TK-10 = test system: TK-10
ACHN = test system: ACHN
A549 = test system: A549
HT-29 = test system: HT-29
SNB-75 = test system: SNB-75
RPMI-8226 = test system: RPMI-8226
NCI-H522 = test system: NCI-H522
KM12 = test system: KM12
OVCAR-5 = test system: OVCAR-5
NCI-H226 = test system: NCI-H226
NCI/ADR-RES = test system: NCI/ADR-RES
UACC-257 = test system: UACC-257
OVCAR-4 = test system: OVCAR-4
MDA-MB-231 = test system: MDA-MB-231
COLO 205 = test system: COLO 205
RXF 393 = test system: RXF 393
HOP-92 = test system: HOP-92
OVCAR-8 = test system: OVCAR-8
BT-549 = test system: BT-549
IGROV-1 = test system: IGROV-1
786-0 = test system: 786-0
MDA-MB-435 = test system: MDA-MB-435
SF-268 = test system: SF-268
UACC-62 = test system: UACC-62
SN12C = test system: SN12C
OVCAR-3 = test system: OVCAR-3
MOLT-4 = test system: MOLT-4
SF-295 = test system: SF-295
SNB-19 = test system: SNB-19
SK-MEL-5 = test system: SK-MEL-5
U-251 = test system: U-251
SK-MEL-28 = test system: SK-MEL-28
HCT-116 = test system: HCT-116

Measured: GI50

C[C@@H](c1ccccc1)N1CN(C(=O)OCc2ccccc2)C(C)(C)CC1=O
inactive: NCI-H460 > 100 µM | M14 > 100 µM | EKVX > 100 µM | Hs-578T > 100 µM | Malme-3M > 100 µM | K562 > 100 µM | LOX IMVI > 100 µM | CCRF-CEM > 100 µM | DU-145 > 100 µM | HL-60 66.8 µM | SF-539 > 100 µM | MDA-N > 100 µM | NCI-H23 > 100 µM | SW-620 > 100 µM | SK-OV-3 > 100 µM | CAKI-1 > 100 µM | HOP-62 > 100 µM | HCC 2998 > 100 µM | PC-3 > 100 µM | T47D 50.6 µM | SK-MEL-2 > 100 µM | MCF7 > 100 µM | SR 86.3 µM | TK-10 > 100 µM | ACHN > 100 µM | A549 > 100 µM | HT-29 > 100 µM | SNB-75 > 100 µM | RPMI-8226 > 100 µM | NCI-H522 > 100 µM | KM12 > 100 µM | OVCAR-5 > 100 µM | NCI-H226 > 100 µM | NCI/ADR-RES > 100 µM | UACC-257 78.2 µM | OVCAR-4 > 100 µM | MDA-MB-231 > 100 µM | COLO 205 > 100 µM | RXF 393 15.5 µM | HOP-92 > 100 µM | OVCAR-8 > 100 µM | BT-549 > 100 µM | IGROV-1 > 100 µM | 786-0 > 100 µM | MDA-MB-435 > 100 µM | SF-268 > 100 µM | UACC-62 > 100 µM | SN12C > 100 µM | OVCAR-3 > 100 µM | MOLT-4 > 100 µM | SF-295 > 100 µM | SNB-19 > 100 µM | SK-MEL-5 41.7 µM | U-251 > 100 µM | SK-MEL-28 56.9 µM | HCT-116 > 100 µM
> 100 µM: HCT-15
